For three compounds, IC50, Ratio IC50 and Activity results are on record in ChEMBL document CHEMBL4619820, “Development of Novel AKR1C3 Inhibitors as New Potential Treatment for Castration-Resistant Prostate Cancer” (J Med Chem, 2020).

Structures are written as SMILES. Positions count from the first letter of the chain named. The source made the active and inactive calls. The calls are words filed in the database; no cut-off is given here.

For assay [1], the target named is T1, Aldo-keto reductase family 1 member C3 (Homo sapiens, UniProt P42330).
T1 sequence (P42330 whole entry): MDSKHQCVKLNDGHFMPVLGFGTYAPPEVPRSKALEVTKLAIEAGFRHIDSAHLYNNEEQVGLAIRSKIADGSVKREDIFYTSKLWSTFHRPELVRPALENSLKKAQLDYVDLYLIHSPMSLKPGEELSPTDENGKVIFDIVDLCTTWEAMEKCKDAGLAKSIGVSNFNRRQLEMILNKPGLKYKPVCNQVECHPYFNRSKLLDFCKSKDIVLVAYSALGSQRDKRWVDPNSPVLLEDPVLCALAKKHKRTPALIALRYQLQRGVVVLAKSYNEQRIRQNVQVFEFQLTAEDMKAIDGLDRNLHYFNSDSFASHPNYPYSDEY
The assay is described as follows: Inhibition of recombinant AKR1C3 (unknown origin) assessed as reduction in S-tetralol-induced dehydrogenase activity by measuring NADPH level.

The species entered for assay [2] is Homo sapiens. Put plainly: Ratio of IC50 for inhibition of recombinant AKR1C2 (unknown origin) inhibition of recombinant AKR1C3 (unknown origin).
Assay [3] has as its target T2, Carbonyl reductase [NADPH] 1 (Homo sapiens, UniProt P16152).
T2 sequence (P16152 whole entry): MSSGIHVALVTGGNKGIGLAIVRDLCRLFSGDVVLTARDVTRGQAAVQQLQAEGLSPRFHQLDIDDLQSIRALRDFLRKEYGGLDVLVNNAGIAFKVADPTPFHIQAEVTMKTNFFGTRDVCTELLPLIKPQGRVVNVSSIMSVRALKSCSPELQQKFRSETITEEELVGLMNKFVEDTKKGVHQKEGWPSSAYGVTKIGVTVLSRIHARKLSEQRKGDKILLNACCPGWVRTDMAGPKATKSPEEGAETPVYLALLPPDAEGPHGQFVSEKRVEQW
The assay is described as follows: Inhibition of CBR1 (unknown origin).

Assay [4] concerns the target T3, Aldo-keto reductase family 1 member C4 (Homo sapiens, UniProt P17516).
T3 sequence (P17516 whole entry): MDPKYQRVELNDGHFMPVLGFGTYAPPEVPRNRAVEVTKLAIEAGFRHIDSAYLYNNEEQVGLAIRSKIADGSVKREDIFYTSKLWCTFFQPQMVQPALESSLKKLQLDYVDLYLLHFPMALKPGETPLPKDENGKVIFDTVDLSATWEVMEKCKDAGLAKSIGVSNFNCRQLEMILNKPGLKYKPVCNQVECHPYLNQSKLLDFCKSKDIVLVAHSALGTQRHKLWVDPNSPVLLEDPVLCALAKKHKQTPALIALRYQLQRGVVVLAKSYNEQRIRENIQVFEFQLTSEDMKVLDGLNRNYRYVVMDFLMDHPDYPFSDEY
Put plainly: Inhibition of recombinant AKR1C4 (unknown origin) assessed as reduction in S-tetralol-induced dehydrogenase activity by measuring NADPH level.

For assay [5], the species on record is Homo sapiens. The assay is described as follows: Ratio of IC50 for inhibition of recombinant AKR1C1 (unknown origin) inhibition of recombinant AKR1C3 (unknown origin).
For assay [6], the species on record is Homo sapiens. Put plainly: Ratio of IC50 for inhibition of CBR1 (unknown origin) inhibition of recombinant AKR1C3 (unknown origin).
Assay [7] addresses T4, Androgen receptor (Homo sapiens) (UniProt P10275).
T4 sequence (whole entry): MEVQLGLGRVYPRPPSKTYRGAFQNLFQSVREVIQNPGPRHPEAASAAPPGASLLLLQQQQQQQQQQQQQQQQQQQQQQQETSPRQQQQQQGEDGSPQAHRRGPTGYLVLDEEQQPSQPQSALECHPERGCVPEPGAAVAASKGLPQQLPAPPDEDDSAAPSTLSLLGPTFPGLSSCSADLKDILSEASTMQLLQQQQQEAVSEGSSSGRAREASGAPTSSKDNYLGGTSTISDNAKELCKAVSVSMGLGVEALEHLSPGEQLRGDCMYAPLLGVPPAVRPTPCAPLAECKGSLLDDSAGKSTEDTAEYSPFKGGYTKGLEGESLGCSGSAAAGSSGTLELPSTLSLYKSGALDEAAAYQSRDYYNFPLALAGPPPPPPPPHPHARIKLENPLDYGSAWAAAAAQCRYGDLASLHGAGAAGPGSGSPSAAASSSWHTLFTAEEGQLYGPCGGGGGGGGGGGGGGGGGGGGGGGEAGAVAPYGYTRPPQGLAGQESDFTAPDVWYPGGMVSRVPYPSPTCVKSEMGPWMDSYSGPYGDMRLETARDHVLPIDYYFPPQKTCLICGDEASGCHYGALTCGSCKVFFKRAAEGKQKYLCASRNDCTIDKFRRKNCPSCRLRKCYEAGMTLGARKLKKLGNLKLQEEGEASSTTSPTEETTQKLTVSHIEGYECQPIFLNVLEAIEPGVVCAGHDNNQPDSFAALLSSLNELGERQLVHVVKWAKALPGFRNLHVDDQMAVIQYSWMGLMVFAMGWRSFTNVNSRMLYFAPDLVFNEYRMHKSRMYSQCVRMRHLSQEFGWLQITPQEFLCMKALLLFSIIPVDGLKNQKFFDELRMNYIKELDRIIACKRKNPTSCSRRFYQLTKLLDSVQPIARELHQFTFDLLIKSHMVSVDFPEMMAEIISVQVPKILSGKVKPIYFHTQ
Put plainly: Agonistic activity at AR in human 22Rv1 cells assessed as effect on cell number at 1 nM by CCK8 assay. The assay is classed as cell-based. The conditions noted are these: CWR22R.

The species entered for assay [8] is Homo sapiens. The assay is described as follows: Ratio of IC50 for inhibition of recombinant AKR1C4 (unknown origin) inhibition of recombinant AKR1C3 (unknown origin).
The target of assay [9] is T5, Aldo-keto reductase family 1 member C2 (Homo sapiens, UniProt P52895).
T5 sequence (P52895 whole entry): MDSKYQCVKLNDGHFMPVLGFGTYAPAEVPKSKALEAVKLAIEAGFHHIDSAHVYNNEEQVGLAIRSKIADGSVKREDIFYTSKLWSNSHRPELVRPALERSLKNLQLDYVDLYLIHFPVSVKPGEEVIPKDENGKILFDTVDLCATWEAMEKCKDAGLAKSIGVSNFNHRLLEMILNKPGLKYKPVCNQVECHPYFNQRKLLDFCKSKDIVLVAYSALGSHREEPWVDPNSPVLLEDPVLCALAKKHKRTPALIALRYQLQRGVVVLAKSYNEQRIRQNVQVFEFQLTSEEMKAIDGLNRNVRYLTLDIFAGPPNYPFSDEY
Put plainly: Inhibition of recombinant AKR1C2 (unknown origin) assessed as reduction in S-tetralol-induced dehydrogenase activity by measuring NADPH level.

The target of assay [10] is T6, Aldo-keto reductase family 1 member C1 (Homo sapiens, UniProt Q04828).
T6 sequence (Q04828 whole entry): T5 sequence (P52895 whole entry) with V38T, H47R, V54L, S87C, M151V, H170R, L172Q
The assay is described as follows: Inhibition of recombinant AKR1C1 (unknown origin) assessed as reduction in S-tetralol-induced dehydrogenase activity by measuring NADPH level.

For the compound `N=c1oc2c(O)cccc2cc1C(=O)Nc1ccc(F)cc1`, the IC50 in [1] is 0.025 µM; in assay [3] it was 0.44 µM; in assay [4], above 10 µM; in assay [9], above 10 µM; in [10] it was 6 µM. Further, the Ratio IC50 in the assay listed under Homo sapiens [2] is above 400; in the assay listed under Homo sapiens [5] it was 240; in the assay listed under Homo sapiens [6] it was 18; in the assay listed under Homo sapiens [8], above 400. Besides, the outcome in assay [7] was inactive.

For `Cc1ccc(NC(=O)c2cc3cccc(O)c3oc2=N)cc1`, the IC50 in assay [1] is 0.027 µM; in assay [3], 0.27 µM; in [4], above 10 µM; in [9] it was above 10 µM; in assay [10], above 10 µM. Moreover, the Ratio IC50 in the assay listed under Homo sapiens [2] is above 370; in the assay listed under Homo sapiens [5], above 370; in the assay listed under Homo sapiens [6], 10; in the assay filed under Homo sapiens [8], above 370. Further, in [7], the result was inactive.

For the compound `CCc1cccc(NC(=O)c2cc3cccc(O)c3oc2=N)c1`, the IC50 was 0.034 µM in [1]; 0.25 µM in [3]; above 10 µM in [4]; above 10 µM in assay [9]; above 10 µM in assay [10]. Further, the Ratio IC50 is above 300 in the assay listed under Homo sapiens [2], above 300 in the assay filed under Homo sapiens [5], 7 in the assay filed under Homo sapiens [6] and above 300 in the assay filed under Homo sapiens [8]. In assay [7], the outcome was inactive.

Usually IC50 stands for the concentration that gives 50% inhibition.
